Assay results from patent US5981507A, “Polymeric carriers linked to nucleotide analogues via a phosphoramide bond” (Advanced Magnetics, Inc., priority 1996, dated 1999).
Where two headings read alike, the source gives them in different places.

Experiments:
[1] = background art; cited from earlier work
[2] = system: 2.2.15 cells; conditions: β-L-FTC; Schinazi et al. Antimicrob. Agent Chem (1994) 38, 2172; cited from earlier work
[3] = system: HBV; conditions: β-L-FTC, Schinazi et al. 1994, cited from earlier work
[4] = system: HBV; assay: Antiviral activity on HBV replication in 2.2.15 cells (blot hybridization of virion DNA and replicative intermediates); type: cell-based; conditions: for EC90: Hepatitis B virus, 90% inhibition of viral replication
Experimental: A common method of evaluating the success of antiviral and anticancer agents is by measuring the efficacy and toxicity in tissue culture systems. The antiviral activity of the macromolecular prodrug made according to the teachings in Example 40 was evaluated in […], a common assay for evaluating efficacy and toxicity of agent for Hepatitis B, as described in detail in Example 42.
(§1) The antiviral activities and cytotoxicity of a macromolecular prodrug of Dextran-araA made according to the teachings in Example 40 and the parent nucleoside analog araA were evaluated using […] (obtained from transfection of the Hep G2 human hepatoblastoma cell line with HBV) as described by Korba and Gerin (Korba B E, Gerin J L., Antiviral Research 1992; 19:55-70.) It is standard system widely used to compare the safety and efficacy of drugs for the treatment of HBV. The data for β-L-FTC,a nucleoside analog with pharmacological properties similar to Lamivudine (3TC), in the same system are shown for comparison. Lamivudine is a recently developed nucleoside analog that has been approved by the U.S. FDA for the treatment of HIV and has shown promise in extensive clinical trials against HBV
(§2) Briefly, the test compounds were added to confluent cultures of 2.2.15 cells every 24 hours for nine consecutive days in fresh culture media (RPMI 1640 with 2% fetal bovine serum, Gibco Inc., Grand Island N.Y. U.S.A.). The amount of extracellular HBV virion DNA and intracellular HBV replication intermediates were determined using quantitative blot hybridization analyses (dot, Southern and northern blots, respectively, Korba B E, Gerin J L., Antiviral Research 1992; 19:55-70; Korba B E, Milman., Antiviral Research 1991; 15:217-228).
Efficacy was determined by the concentrations of agent giving 90% inhibition of viral replication (EC90) as measured in changes of HBV virion DNA and replicative intermediates. Cytotoxicity caused by the agents was measured by the uptake of neutral red dye. The cytotoxic concentration (CC50), was considered to be the concentration at which 50% of the cells took up due the dye. The selectivity index (SI, CC50 /EC90) is measure of drug toxicity in relation to drug efficacy.

[5] = Cytotoxicity in 2.2.15 cells (uptake of neutral red dye); type: cell-based; conditions: human, nine daily additions
Experimental: as §1
as §2, with “15:217-228). […]” for “15:217-228).”

[6] = Intracellular RI DNA (values in parentheses)

O=c1[nH]cnc2c1ncn2[C@@H]1O[C@H](CO)[C@@H](O)[C@@H]1O [arahypoxanthine]
antiviral effect [1]: little antiviral effect

Nc1nc(=O)n([C@@H]2CS[C@H](CO)O2)cc1F [β-L-FTC]
CC50 [2]: 746 µM
EC90 ([3]; Extracellular DNA): 1.1 µM
SI (CC50/EC90) ([3]; Extracellular DNA): 678
EC90 ([3]; Intracellular RI DNA): 0.39 µM
SI (CC50/EC90) ([3]; Intracellular RI DNA): 1913

Nc1ncnc2c1ncn2[C@@H]1O[C@H](CO)[C@@H](O)[C@@H]1O [araA]
SI (CC50/EC90) ([4]; Extracellular DNA): 11
EC90 ([4]; Extracellular DNA (HBV virion)): 17 ± 1.9 µM
EC90 [4, 6]: 25 ± 2.1 µM
SI (CC50/EC90) [4, 6]: 7.5
SI (rounded) ([4]; text statement on the SI of Table 3): about 10
CC50 [5]: 188 ± 20 µM
